Consider two molecules from US11433136B2, “Polyacetal polymers, conjugates, particles and uses thereof” (THE GENERAL HOSPITAL CORPORATION, priority 2015, dated 2022).

For data set [1], the system named is AK4.4 tumors. In words: Orthotopic AK4.4 pancreatic (PDAC) tumors in lean and obese mice. In kind it is in vivo, mice (FVB). The protocol:
Diet started at six weeks of age, continued for ten weeks (C57BL/6 and FVB), at which time tumors were implanted, and then continued until the end of experiments. In the spontaneous tumor models, diets were administered until tumor collection. Mice genetically deficient for leptin (ob/ob) on a standard chow for seven weeks gained weight compared to age matched WT mice (n=8-10/group for C57Bl/6, FVB and ob/ob, 4-10/group for KPC, 7-21/group for iKRAS). Left bars represent mice fed a low-fat diet, right bars represent mice fed a high fat diet for all groups except C57/B6 on the far right of the graph, in which the right bar represents the ob/ob mice. […] PAN02 and AK4.4 syngeneic tumors were orthotopically implanted in C57BL/6 and FVB mice respectively at ten weeks of diet (lean diet, left bars; and obese diet or ob/ob mice, right bars); ob/ob mice were implanted with PAN02 tumors at seven weeks of age. Tumors were collected 21 days later. Obese animals presented with higher tumor weights than lean counterparts in all models (n=8-10/group). FIG. 7D is representative images of mesenteric peritoneal dissemination in lean and obese mice implanted with PAN02 tumors. Mesenteries collected at the same time as tumors in FIG. 7C. FIG. 7E is a graph showing the quantification of mesenteric peritoneal metastasis in the PAN02 model. FIG. 7F is a graph showing the quantification of retro-peritoneal metastasis in the AK4.4 model. Data are shown as mean±standard error of the mean (SEM). P values were determined by the Student t-test. *, P<0.05; **, P<0.01; ***, P<0.001.
Expression of genes associated with AT-1 pathway activation and fibrosis/desmoplasia is increased in PAN02 (FIG. 10A) and AK4.4 (FIG. 10B) tumors from obese mice (right bars) in comparison to lean mice (left bars). […] Data normalized to lean group. 3-4 samples per group pooled in one single PCR array fibrosis gene set plate. […] Of note, similar to αSMA, the changes of AT1, as well as other desmoplasia related markers, were relatively mild in the lean setting. […] Data are shown as mean±SEM with the exception of FIGS. 10A and 10B. P values were determined by the Student t-test unless otherwise stated. *, P<0.05; **, P<0.01, ***p<0.001.
Quantification of total and lectin-positive vessel area in AK4.4 tumors. Obese mice (right bars) presented with decreased perfusion (n=5-12 tumors/group) compared to lean mice (left bars). […] Obese mice presented with increased expression of the hypoxia marker Hif-1α in tumors. […] Doxorubicin quantified via immunofluorescence (n=4 tumors/group). […] AK4.4 syngeneic tumors were orthotopically implanted at ten weeks of diet; treatments were initiated at day 7 post-implantation and tumors resected at day 19. […] Data in FIGS. 17A, 17C and 17D, are shown as mean±SEM. P values were determined by the Student t-test unless otherwise stated. *, P<0.05.
FIGS. 18A, 18B, 18C, 18D, 18E, 18F, and 18G show the additional effects of AT-1 inhibition on obesity-aggravated desmoplasia, perfusion and drug delivery. […] Scale bar: 30 μm (left panels), 500 μm (right panel). […] FIG. 18E is a western blot showing a decrease in αSMA expression in PAN02 tumors implanted in obese AT1 KO mice compared with obese WT mice (bands are part of a larger WB. Lean control group is depicted in FIG. 18F). […] Data in FIGS. 18D, 18F and 18G are shown as mean±SEM. In FIGS. 18C and 18F, far left bars represent lean mice, middle left bars represent lean mice treated with losartan, middle right bars represent obese mice, and […] bars represent obese mice treated with losartan.

For data set [2], the system named is PDACs. In words: Effect of losartan on immune cell populations in tumors (model not stated). Also on record: species or system mice. The conditions noted are these: mouse, in vivo. The protocol: FIGS. 21A, 21B, and 21C show the effect of losartan on the immune tumor microenvironment. […] Error bars represent standard error of the mean. P values were determined by the Student t-test in A. *, P<0.05, **, P<0.01, ***, P<0.001.

The test system of data set [3] is PDAC. The conditions noted are these: in vivo; cited from earlier work.
In data set [4] the test system is cardiac and renal fibrosis. The conditions noted are these: in vivo; cited from earlier work.
The subject of data set [5] is mouse models of Marfan syndrome. The conditions noted are these: affected mice; cited from earlier work.
For data set [6], the system named is Marfan syndrome. The conditions noted are these: children; cited from earlier work.

Structures are written as SMILES.

Turning to `O=c1[nH]cc(F)c(=O)[nH]1` [Example 5-FU, 5-fluorouracil], the “response to chemotherapy (tumor growth)” value in data set [1] (obese vs lean, treatment from day 7, tumors resected day 19) is “less effective in preventing tumor growth in obese animals”.

Take `CCCCc1nc(Cl)c(CO)n1Cc1ccc(-c2ccccc2-c2nn[nH]n2)cc1` [losartan]: the “tumor αSMA protein expression” value in data set [1] (lean and obese) is “reduced tumor αSMA protein expression more dramatically in the obese setting”. For the same molecule, in data set [1] (lean mice), the “mRNA expression of markers of tumor fibrosis/desmoplasia” value is given as “did not alter these markers in lean mice”. Besides, in data set [1] (losartan with 5-FU, lean and obese), the “response to chemotherapy with AT1 blockade” value is “improved response to chemotherapy in both lean and obese settings but with higher magnitude in obese setting”. Besides, in data set [1] (obese but not lean mice), the “chemotherapy delivery to tumors” value was “increase chemotherapy delivery” and the tumor perfusion result is given as “tended to improve perfusion”. In data set [1] (obese mice), the “cytokine expression in tumors (multiplex protein)” value was “reduced the expression of multiple cytokines including IL-1”; the “mRNA expression of markers of tumor fibrosis/desmoplasia” value was “reverted by losartan”; the “tumor fibrillar collagen (SHG) and collagen-1 expression” value was “reduced tumor fibrillar collagen (top panels) as well as collagen-1 expression”. Further, in data set [1] (obese vs lean), the “expression of AT1 signaling and desmoplasia-related markers (western blotting)” value is recorded as “normalized the obesity-augmented expression”. Moreover, in data set [2], the “enrichment for GR(+)F480(−) cells within the CD45 population” value is “tended to decrease the enrichment for GR(+)F480(−) cells” and the “enrichment for T regulatory cells within CD4 cells” value was “tended to decrease the enrichment”. In addition, in data set [3], the “desmoplasia in PDAC” value is recorded as “can reduce desmoplasia in PDAC”; the “vascular perfusion, drug delivery and chemotherapy effectiveness” value is “can enhance vascular perfusion by decompressing vessels, leading to improved drug delivery and chemotherapy effectiveness”. The “incidence of cardiac and renal fibrosis” value in data set [4] was “reduce the incidence of cardiac and renal fibrosis”. In addition, the “blood vessel architecture and aortic aneurysms” value in data set [5] is “striking effects in improving blood vessel architecture and prevented the development of aortic aneurysms”. The “progression of aortic and muscular lesions” value in data set [6] is “can strikingly prevent progression of aortic and muscular lesions”.
